From ChEMBL document CHEMBL1128622, “Formation of nitrogen oxides including NO from oxidative cleavage of CN(OH) bonds: A general cytochrome P450-dependent reaction” (Bioorg Med Chem Lett, 1995)

Columns and labels:
[1] = species: Rattus norvegicus; assay: Ability to undergo a P450-dependent oxidative cleavage of their C=N bond, to release corresponding alkylketone derivative by incubating with rat (treated by DEX) liver microsomes in the presence of the NADPH; assay type: functional
[2] = species: Rattus norvegicus; assay: Ability to undergo a P450-dependent oxidative cleavage of the C=N bond by incubating with rat (treated by DEX) liver microsomes in the presence of NADPH; assay type: functional
[3] = species: Rattus norvegicus; settings: Liver, Microsomes
Description: Ability to undergo a P450-dependent oxidative cleavage of the C=N bond by incubating with rat (untreated) liver microsomes in the presence of NADPH

[4] = species: Rattus norvegicus; settings: Liver, Microsomes; remark: listed apart in the source
[5] = species: Rattus norvegicus; assay: Ability to undergo a P450-dependent oxidative cleavage of their C=N bond, to release NO3- by incubating with rat (treated by DEX) liver microsomes in the presence of NADPH; assay type: functional

SMILES	Formation of compound [1] [nM]	Formation of NO3- [2] [nM]	Formation of NO2- [3] [nM]	Formation of NO2- [4] [nM]	Formation of NO3- [5] [nM]
C/C(=N\O)c1ccc(Cl)cc1	6.4	1.2	0.1	6.2	
ON=C1CCCCC1			< 0.1	3	
O/N=C/c1ccccc1			< 0.1	3	
CCCC/C(CC)=N\O			< 0.1	5.1	
N/C(=N\O)N1CCCCC1			1.1	79	
CC(C)/N=C(/NO)NC(C)C			0.9	62	
O/N=C/c1ccc(Cl)cc1			< 0.1	2	
N/C(=N\O)c1ccccc1			0.2	2.5	
N/C(=N/C1CCCCC1)NO			< 0.1	28.6	
CCCCCC/C=N/O			0.2	3.7	
CCCCCCOc1ccc(C(=N)NO)cc1	12.5		0.6	6.8	8.1
N/C(=N/c1ccc(C(F)(F)F)cc1)NO			< 0.1	11	
CCCCC/C(C)=N\O			< 0.1	7	
N/C(=N\O)c1ccc(Cl)cc1	5.1		0.7	2.6	1.5
ON=C(NC1CCCCC1)NC1CCCCC1			< 0.1	58	
N=C(NO)Nc1ccc(Cl)cc1	17.7		0.6	18.4	4.4
C/C(=N\O)c1ccccc1			< 0.1	3.2	
